Read-outs that look alike come from different tables or passages of the source.
Experiments:
human cell lines = conditions: versus pro-drug CAT3; cited from earlier work
P-gp = test system: P-gp; design: method as in PMID 25936609, PMID 35547992; conditions: cited from earlier work
[1] = In vitro release under simulated gastrointestinal conditions (dialysis bag); assay type: physicochemical; conditions: 0.1% SDS medium, 37 °C
Description: Drug release from SLN was monitored in vitro under simulated gastrointestinal conditions. The tests were performed by placing 2 mL SLN samples (containing 2 mg CAT3) into 400 mL of the dissolution medium maintained at 37 °C. The dissolution media contained 0.1% SDS (w/v) to meet sink conditions. Preswollen 8–10 kDa MWCO dialysis bags (Sigma-Aldrich, Madrid, Spain), which contained 5 mL of the blank SDS solution with the same concentration, were placed into the dissolution flask (n = 3). The release behavior of CAT3 was compared under the same condition by placing 5 mg CAT3 powder into the 1000 mL media. The samples (1 mL) were withdrawn at predetermined time points from the dialysis bags and replaced with the same amount of fresh medium maintained at 37 °C. The samples were centrifuged for 5 min at 12,000 rpm, and the resultant supernatants were quantified for drug content. The samples were protected from light during the experiments. The DDsolver software was used to evaluate the drug-release kinetics. An Excel worksheet (Microsoft Corporation, Redmond, WA, USA) was used to control the computing method for comparison with the results obtained using the DDSolver program. According to the example format for each built-in module of the DDSolver, all data were entered into Excel. The relevant parameters were calculated following the step-by-step equations utilizing an Excel spreadsheet.

[2] = Transepithelial transport study; assay type: in vitro ADME, canine; conditions: dog, MDCK-MDR1, 37 °C, n = 3
Description: The permeabilities of CAT3 and OA-CAT3-SLN were investigated on an MDCK-MDR1 cell monolayer. MDCK-MDR1 cells were seeded onto 12-well transwell® filter inserts (pore size 0.4 μm, surface area 1.12 cm^2; Corning Incorporated, Corning, NY, USA) at a density of 2 × 10^5 cells/well. The culture medium was changed every 24 h for seven days, and the cell monolayers with a transepithelial electrical resistance (TEER) above 110 Ω·cm^2 were used for the transport experiments. Prior to performing the TEER test, the culture medium was removed, and the monolayer was pre-incubated with 0.5 mL of Hanks’ balanced salt solution (HBSS) for 20 min at 37 °C. […]
To investigate the mechanism of cellular internalization of OA-CAT3-SLN, various specific endocytic inhibitors were evaluated in the uptake study. […]
The amount of CAT3 or OA-CAT3-SLN that permeated that through the monolayer was determined using the liquid chromatography-mass spectrometry (LC-MS/MS) system. The apparent permeability coefficient (Papp) of CAT3 or OA-CAT3-SLN was calculated according to the following equation: Papp = dQ/dt × 1/(A × C0), where dQ/dt indicates the linear appearance rate of mass at the BL side (μmol/s), C0 is the initial concentration of CAT3 or OA-CAT3-SLN on the AP side (μmol/mL), and A is the surface area of the monolayer (cm^2).

C6 glioma cells = assay: In vitro cytotoxicity analysis (MTT assay); assay type: cell-based; conditions: 0.64 ng/mL
Description: Cytotoxicity of the CAT3 suspension, OA-CAT3-SLN, and blank SLN against the C6 brain glioma cell line was measured by 3-(4,5-dimethylthiazol-2-yl)-2,5 diphenyltetrazolium bromide (MTT) assay. Briefly, the cells were seeded into 96-well plates at a cell density of 2 × 10^4 cells/mL (100 μL/well). After 24 h of incubation, the cells were further incubated for 24, 48, and 72 h in fresh DMEM complete medium containing 0.64 ng/mL CAT3 suspension, OA-CAT3-SLN, or the blank SLN, respectively. At the above-mentioned time points, the culture medium was replaced by the MTT solution (0.5 mg/mL, 200 μL/well), followed by incubation for further 4 h. The supernatant was removed and 100 μL of DMSO solution was added to the wells. The absorbance values of each well were measured at 570 nm using a microplate reader (Synergy H1 Hybrid Multi-Mode Microplate Reader, BioTek, Winooski, VT, USA).

| SMILES | in vitro antitumor activity, times greater than CAT3 (human cell lines) | P-gp substrate (P-gp) | CAT3 released in the first 24 h [1] | Papp A→B at 2 h, 100 ng/mL [2] [×10⁻⁶ cm/s] | viability at 0.00064 µg/mL (C6 glioma cells; 24 h, n = 3, read-out: cell viability 24 h) [%] | viability at 0.00064 µg/mL (C6 glioma cells; 48 h, n = 3, read-out: cell viability 48 h) [%] | viability at 0.00064 µg/mL (C6 glioma cells; 72 h, n = 3, read-out: cell viability 72 h) [%] |
| --- | --- | --- | --- | --- | --- | --- | --- |
| COc1cc2c3c(c4ccc(O)cc4c2cc1OC)C[C@@H]1CCCN1C3 [PF403, 13a(S)-3-hydroxyl-6,7-dimethoxyphenanthro(9,10-b)-indolizidine] | about 1000 times | substrate of P-gp |  |  |  |  |  |
| COc1cc2c3c(c4ccc(OC(=O)C(C)(C)C)cc4c2cc1OC)C[C@@H]1CCCN1C3 [CAT3, 13a-(S)-3-pivaloyloxyl-6,7-dimethoxyphenanthro(9,10-b)-indolizidine] |  |  | more than 80% | 0.106 ± 0.0289 | 81.2 | 46.2 | 16.5 |
